Results taken from ChEMBL document CHEMBL3400121, “Design and synthesis of novel 1,2,3-triazole-pyrimidine-urea hybrids as potential anticancer agents” (Bioorg Med Chem Lett, 2015).
Active and inactive are the calls of the source. The calls are words filed in the database; no cut-off is given here.

Tests used:
MGC-803 [1] = test: Induction of apoptosis in human MGC803 cells assessed as necrotic cells at 4 uM after 12 to 24 hrs using annexin V-FITC/PI double staining by flow cytometry (reference value: 6.8 %); type: functional
MGC-803 [2] = test: Induction of apoptosis in human MGC803 cells assessed as increase in p53 level at 2 to 4 uM after 48 hrs by Western blot analysis; type: functional, cell-based
MGC-803 [3] = test: Induction of apoptosis in human MGC803 cells assessed as necrotic cells at 1 uM after 12 to 24 hrs using annexin V-FITC/PI double staining by flow cytometry (reference value: 6.8 %); type: functional
[4] = Anticancer activity against human EC109 cells assessed as inhibition of proliferation after 72 hrs by MTT assay; type: functional, cell-based; settings: ECa-109, 72 h
MGC-803 [5] = test: Induction of apoptosis in human MGC803 cells assessed as total apoptotic cells at 1 uM after 12 to 24 hrs using annexin V-FITC/PI double staining by flow cytometry (reference value: 2.8 %); type: functional
[6] = Anticancer activity against mouse B16F10 cells assessed as inhibition of proliferation after 72 hrs by MTT assay; type: functional, cell-based; settings: B16-F10, 72 h
MGC-803 [7] = test: Induction of apoptosis in human MGC803 cells assessed as viable cells at 2 uM after 12 to 24 hrs using annexin V-FITC/PI double staining by flow cytometry (reference value: 90.4 %); type: functional; settings: read-out: Activity
MGC-803 [8] = test: Induction of apoptosis in human MGC803 cells assessed as viable cells at 4 uM after 12 to 24 hrs using annexin V-FITC/PI double staining by flow cytometry (reference value: 90.4 %); type: functional; settings: read-out: Activity
MGC-803 [9] = test: Induction of apoptosis in human MGC803 cells assessed as decrease in pro-caspase 3 level at 2 to 4 uM after 48 hrs by Western blot analysis; type: functional, cell-based
MGC-803 [10] = test: Induction of apoptosis in human MGC803 cells assessed as total apoptotic cells at 2 uM after 12 to 24 hrs using annexin V-FITC/PI double staining by flow cytometry (reference value: 2.8 %); type: functional
MGC-803 [11] = test: Induction of apoptosis in human MGC803 cells assessed as viable cells at 1 uM after 12 to 24 hrs using annexin V-FITC/PI double staining by flow cytometry (reference value: 90.4 %); type: functional; settings: read-out: Activity
MGC-803 [12] = test: Induction of apoptosis in human MGC803 cells assessed as cell rounding at 1 to 4 uM after 24 hrs using Hoechst 33258 staining by fluorescence microscopy; type: functional, cell-based
MGC-803 [13] = test: Induction of apoptosis in human MGC803 cells assessed as early apoptotic cells at 1 uM after 12 to 24 hrs using annexin V-FITC/PI double staining by flow cytometry (reference value: 1.6 %); type: functional
MGC-803 [14] = test: Induction of apoptosis in human MGC803 cells assessed as necrotic cells at 2 uM after 12 to 24 hrs using annexin V-FITC/PI double staining by flow cytometry (reference value: 6.8 %); type: functional
MGC-803 [15] = test: Induction of apoptosis in human MGC803 cells assessed as chromatin shrinkage at 1 to 4 uM after 24 hrs using Hoechst 33258 staining by fluorescence microscopy; type: functional, cell-based
MGC-803 [16] = test: Induction of apoptosis in human MGC803 cells assessed as late apoptotic cells at 1 uM after 12 to 24 hrs using annexin V-FITC/PI double staining by flow cytometry (reference value: 1.2 %); type: functional
MGC-803 [17] = test: Induction of apoptosis in human MGC803 cells after 12 to 24 hrs using annexin V-FITC/PI double staining by flow cytometry; type: functional, cell-based
MGC-803 [18] = test: Induction of apoptosis in human MGC803 cells assessed as early apoptotic cells at 2 uM after 12 to 24 hrs using annexin V-FITC/PI double staining by flow cytometry (reference value: 1.6 %); type: functional
MGC-803 [19] = test: Anticancer activity against human MGC803 cells assessed as inhibition of proliferation after 72 hrs by MTT assay; type: functional, cell-based; settings: MGC-803, 72 h
MGC-803 [20] = test: Induction of apoptosis in human MGC803 cells assessed as formation of apoptotic bodies at 1 to 4 uM after 24 hrs using Hoechst 33258 staining by fluorescence microscopy; type: functional, cell-based
MGC-803 [21] = test: Induction of apoptosis in human MGC803 cells assessed as late apoptotic cells at 2 uM after 12 to 24 hrs using annexin V-FITC/PI double staining by flow cytometry (reference value: 1.2 %); type: functional
MGC-803 [22] = test: Induction of apoptosis in human MGC803 cells assessed as late apoptotic cells at 4 uM after 12 to 24 hrs using annexin V-FITC/PI double staining by flow cytometry (reference value: 1.2 %); type: functional
MGC-803 [23] = test: Induction of apoptosis in human MGC803 cells assessed as total apoptotic cells at 4 uM after 12 to 24 hrs using annexin V-FITC/PI double staining by flow cytometry (reference value: 2.8 %); type: functional
[24] = Cytotoxicity against human GES-1 cells assessed as inhibition of proliferation after 72 hrs by MTT assay; type: cell-based; settings: GES1, 72 h
MCF7 = test: Anticancer activity against human MCF7 cells assessed as inhibition of proliferation after 72 hrs by MTT assay; type: functional, cell-based; settings: MCF7, 72 h
MGC-803 [25] = test: Induction of apoptosis in human MGC803 cells assessed as early apoptotic cells at 4 uM after 12 to 24 hrs using annexin V-FITC/PI double staining by flow cytometry (reference value: 1.6 %); type: functional

Compound: COc1cc(-c2nc(SCc3cn(CC(=O)NC(=O)Nc4ccccn4)nn3)nc(Nc3ccc(C)cc3)c2C#N)cc(OC)c1OC
- Activity (MGC-803 [1]): 1.8%
- Activity (MGC-803 [2]): Active
- Activity (MGC-803 [3]): 2.5%
- IC50 [4]: 21.3 µM
- Activity (MGC-803 [5]): 17.2%
- IC50 [6]: 0.032 µM
- viability at 2 µM (MGC-803 [7]): 65.8%
- viability at 4 µM (MGC-803 [8]): 35.2%
- Activity (MGC-803 [9]): Active
- Activity (MGC-803 [10]): 32.5%
- viability at 1 µM (MGC-803 [11]): 80.3%
- Activity (MGC-803 [12]): Active
- Activity (MGC-803 [13]): 13.1%
- Activity (MGC-803 [14]): 1.7%
- Activity (MGC-803 [15]): Active
- Activity (MGC-803 [16]): 4.1%
- Activity (MGC-803 [17]): Dose-dependent effect
- Activity (MGC-803 [18]): 26.1%
- IC50 (MGC-803 [19]): 7.03 µM
- Activity (MGC-803 [20]): Active
- Activity (MGC-803 [21]): 6.4%
- Activity (MGC-803 [22]): 10.3%
- Activity (MGC-803 [23]): 63%
- IC50 [24]: > 64 µM
- IC50 (MCF7): 21 µM
- Activity (MGC-803 [25]): 52.7%
